Some test systems named below: SK-MEL-28 melanoma; SW-620 colon; RPMI-8226 leukemia; UACC-62 melanoma; KM12 colon; OVCAR-4 ovarian; OVCAR-5 ovarian; TK-10 renal; MDA-MB-435; BT-549 breast; A549 NSCLC; HOP-62 NSCLC.
What all share (assay): NCI anticancer screen, dose series, 48 h

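Following 48 hours of exposure in 96-well plates, responses at five concentrations were used to interpolate endpoints linearly. TGI is the concentration that stops growth completely.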

Regarding `CSc1c(C)n([O-])c2cc(Cl)c(Cl)cc2[n+]1=O`, the TGI was 39 µM with SK-MEL-28 melanoma; 42.9 µM in the assay with SW-620 colon; 34.9 µM in the assay with RPMI-8226 leukemia; 28.9 µM in the assay on UACC-62 melanoma; more than 60.7 µM in the assay with KM12 colon; 30.6 µM in the assay with OVCAR-4 ovarian. Besides, the TGI with OVCAR-5 ovarian was 29.8 µM; in the assay with TK-10 renal it was 35.6 µM; in the assay with MDA-MB-435 it was 36.7 µM; with BT-549 breast it was 32.7 µM; in the assay on A549 NSCLC, more than 100 µM; in the assay on HOP-62 NSCLC, more than 100 µM.

Consider `CC(=O)c1c(O)cc(O)c(-c2c(C)cc(O)c3c2C(=O)c2cccc(O)c2C3=O)c1O`, for which the TGI was 73.5 µM in the assay on SK-MEL-28 melanoma; 36.8 µM with SW-620 colon; 35.5 µM with RPMI-8226 leukemia; 29.1 µM in the assay on UACC-62 melanoma; 33.5 µM in the assay on KM12 colon; 28.5 µM with OVCAR-4 ovarian. Further, the TGI worked out at 41.5 µM in the assay with OVCAR-5 ovarian; 35.6 µM in the assay with TK-10 renal; 34.5 µM in the assay with MDA-MB-435; 35.3 µM in the assay with BT-549 breast; 34.2 µM in the assay with A549 NSCLC; 40.5 µM in the assay with HOP-62 NSCLC.

`CCOC(=O)CN1C(=O)C(=O)N(c2ccc(OC)c3ccccc23)C1=O`: the TGI in the assay with SK-MEL-28 melanoma, with SW-620 colon, in the assay with RPMI-8226 leukemia, in the assay on UACC-62 melanoma, with KM12 colon and in the assay on OVCAR-4 ovarian was more than 100 µM in each case. Moreover, the TGI with OVCAR-5 ovarian, with TK-10 renal, in the assay with MDA-MB-435, with BT-549 breast, with A549 NSCLC and in the assay on HOP-62 NSCLC was more than 100 µM each time.

For the molecule `Cc1ccc(C)c2c1n1c(=O)n(C)c(=O)n21`, the TGI in the assay with SK-MEL-28 melanoma, in the assay on SW-620 colon, with RPMI-8226 leukemia, in the assay on UACC-62 melanoma, in the assay on KM12 colon and with OVCAR-4 ovarian was more than 100 µM each time. Besides, the TGI in the assay with OVCAR-5 ovarian, in the assay on TK-10 renal, in the assay with MDA-MB-435, with BT-549 breast and in the assay on A549 NSCLC was more than 100 µM throughout.

Take `COc1ccc(/C=C(/c2ccc(OC)cc2)c2c(Cl)cc(Cl)c(/C(=C\c3ccc(OC)cc3)c3ccc(OC)cc3)c2N=Nc2ccccc2)cc1`: the TGI in the assay on SK-MEL-28 melanoma, with SW-620 colon, in the assay on RPMI-8226 leukemia, in the assay with UACC-62 melanoma, in the assay on KM12 colon and with OVCAR-4 ovarian was more than 100 µM in each case. For the same molecule, the TGI in the assay with OVCAR-5 ovarian, with TK-10 renal, in the assay on MDA-MB-435, in the assay with BT-549 breast, in the assay on A549 NSCLC and in the assay on HOP-62 NSCLC was more than 100 µM each time.

As for `Cc1ccsc1/C=N/Nc1cc(C)c2ccccc2n1`, the TGI was 30.2 µM in the assay on SK-MEL-28 melanoma; 48.7 µM in the assay with SW-620 colon; 8.9 µM with RPMI-8226 leukemia; 26.6 µM in the assay with UACC-62 melanoma; 46 µM in the assay with KM12 colon; 72.2 µM with OVCAR-4 ovarian. Also, the TGI in the assay on OVCAR-5 ovarian turned out to be 90.3 µM; in the assay on TK-10 renal it was 31.9 µM; in the assay on MDA-MB-435 it was 30 µM; in the assay on BT-549 breast, 44.8 µM; in the assay with A549 NSCLC, 52.3 µM; in the assay on HOP-62 NSCLC, 78.8 µM.

With `CCCCOc1ccc(S(=O)(=O)/N=C(\NO)Nc2ccc(Cl)cc2)cc1`, the TGI in the assay on SK-MEL-28 melanoma stood at 36.1 µM; with SW-620 colon it was 40.3 µM; in the assay with RPMI-8226 leukemia, 50.9 µM; with UACC-62 melanoma it was 28.8 µM; in the assay with KM12 colon, 31.7 µM; in the assay with OVCAR-4 ovarian, 23.6 µM. Besides, the TGI in the assay on OVCAR-5 ovarian was found to be 33.6 µM; in the assay with TK-10 renal, 28.7 µM; with MDA-MB-435, 30.6 µM; with BT-549 breast, 26.7 µM; in the assay with A549 NSCLC, 30.5 µM; in the assay on HOP-62 NSCLC, 32.4 µM.

Take `COc1ccc(/N=N/C(=NNC(=O)c2ccc(C)cc2)c2ccc(N(C)C)cc2)cc1`: the TGI was more than 100 µM in the assay on SK-MEL-28 melanoma; more than 100 µM in the assay with SW-620 colon; more than 70.9 µM in the assay with RPMI-8226 leukemia; more than 83.1 µM in the assay on UACC-62 melanoma; more than 100 µM with KM12 colon; more than 100 µM with OVCAR-4 ovarian. The TGI was more than 100 µM with OVCAR-5 ovarian; more than 100 µM in the assay on TK-10 renal; 62.7 µM with MDA-MB-435; 82.9 µM in the assay on BT-549 breast; more than 100 µM in the assay with A549 NSCLC; more than 100 µM in the assay on HOP-62 NSCLC.

As for `O=C(Cn1c(=O)oc2ccc(C(=O)c3cccc(Cl)c3)cc21)c1ccccc1`, the TGI in the assay on SK-MEL-28 melanoma, with SW-620 colon, in the assay with RPMI-8226 leukemia, with UACC-62 melanoma, in the assay on OVCAR-4 ovarian and with OVCAR-5 ovarian was more than 100 µM in each case. In addition, the TGI in the assay on TK-10 renal, with MDA-MB-435, with BT-549 breast, with A549 NSCLC and in the assay with HOP-62 NSCLC was more than 100 µM throughout.

As to `CCN(CCC#N)C(=O)Nc1ccccc1`, the TGI in the assay with SK-MEL-28 melanoma, in the assay with SW-620 colon, with RPMI-8226 leukemia, in the assay on UACC-62 melanoma, in the assay with KM12 colon and in the assay on OVCAR-4 ovarian was more than 100 µM throughout. Also, the TGI in the assay with OVCAR-5 ovarian, in the assay with TK-10 renal, in the assay with MDA-MB-435, in the assay on BT-549 breast, with A549 NSCLC and in the assay with HOP-62 NSCLC was more than 100 µM in each case.

`Fc1ccc2c(c1)nc1n2C(c2c(F)cccc2F)SC1` (configuration not stated): the TGI in the assay on SK-MEL-28 melanoma was more than 100 µM; in the assay with SW-620 colon, more than 100 µM; with RPMI-8226 leukemia, more than 100 µM; with UACC-62 melanoma it was more than 100 µM; in the assay on KM12 colon it was 64.4 µM; in the assay on OVCAR-4 ovarian it was more than 100 µM. In addition, the TGI in the assay with OVCAR-5 ovarian, in the assay on TK-10 renal, in the assay with MDA-MB-435, in the assay with BT-549 breast, in the assay on A549 NSCLC and in the assay with HOP-62 NSCLC was more than 100 µM throughout.

Turning to `Cn1c2ccccc2c2c3c(c4c5ccccc5n(C)c4c21)C(=O)N(c1ccccc1)C3=O`, the TGI in the assay with SK-MEL-28 melanoma, in the assay on SW-620 colon, in the assay on RPMI-8226 leukemia, with UACC-62 melanoma, in the assay with KM12 colon and in the assay with OVCAR-4 ovarian was more than 100 µM each time. The TGI in the assay with OVCAR-5 ovarian, in the assay on TK-10 renal, with MDA-MB-435, in the assay on BT-549 breast, in the assay with A549 NSCLC and with HOP-62 NSCLC was more than 100 µM each time.

These data come from PubChem BioAssay (NCI).
